Consider eleven molecules from PMC4227742 (Journal of the American Chemical Society, 2014).

In assay [1] the target is T1, Gcn5 (Homo sapiens, UniProt Q92830). Briefly: Competitive substrate profiling: Gcn5 labeling by probe 2 vs acyl-CoAs. In kind it is binding. Particulars: 2 (10 μM), acyl-CoAs (1000 μM).
Assay [2] concerns the target T1, Gcn5. The assay can be described thus: LC–MS/MS verification of Gcn5 acyltransferase activity. In kind it is biochemical. To be noted: LC–MS/MS analysis, Supplementary Figure S10.
The target in assay [3] is T2, Mof (Homo sapiens, UniProt Q9H7Z6).
T2 sequence (Q9H7Z6 147-449): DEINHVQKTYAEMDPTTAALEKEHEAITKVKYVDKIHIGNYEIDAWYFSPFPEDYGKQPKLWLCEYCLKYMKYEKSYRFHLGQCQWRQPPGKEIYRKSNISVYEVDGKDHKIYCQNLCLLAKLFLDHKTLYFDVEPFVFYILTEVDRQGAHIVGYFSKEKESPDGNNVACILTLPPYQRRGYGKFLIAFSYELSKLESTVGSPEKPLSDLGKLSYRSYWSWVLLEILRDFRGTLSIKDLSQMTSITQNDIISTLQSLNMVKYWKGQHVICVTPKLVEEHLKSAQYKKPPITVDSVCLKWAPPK
The assay can be described thus: Competition of Mof labeling by probe 3. In kind it is binding. To be noted: excess competitor (100 μM), probe 3 1 μM.

For assay [4], the target named is T3, pCAF (Homo sapiens, UniProt Q92831). Particulars: excess competitor (100 μM), probe 2 1 μM.
The subject of assay [5] is pCAF. Particulars: read-out: literature IC50; cited from earlier work.
Assay [6] deals with human pCAF. To be noted: cited from earlier work.
For assay [7], the target named is T3, pCAF. The assay can be described thus: Labeling of pCAF in HEK-293 overexpression extracts. In kind it is binding.
Assay [8] concerns the target T3, pCAF. The assay can be described thus: Detection of recombinant pCAF spiked into HeLa cell proteome. The class given is binding.
In assay [9] the target is T3, pCAF. Briefly: Photoaffinity/click fluorescent labeling of recombinant KAT, SDS-PAGE. The class given is binding. To be noted: for Fluorescent detection of pCAF at high probe concentration: 1 μM probe; for Labeling of pCAF in KAT cocktail: probe 1 μM, mixture of p300, pCAF, Mof.
Assay [10] addresses T4, Mof (MYST1) (Homo sapiens, UniProt Q9H7Z6).
T4 sequence (Q9H7Z6 147-449): T2 sequence (Q9H7Z6 147-449)
The description is as above. In kind it is binding. Particulars: for Labeling of Mof in KAT cocktail: probe 1 μM, mixture of p300, pCAF.

For assay [11], the target named is T5, p300 (Homo sapiens, UniProt Q09472).
T5 sequence (Q09472 1284-1673): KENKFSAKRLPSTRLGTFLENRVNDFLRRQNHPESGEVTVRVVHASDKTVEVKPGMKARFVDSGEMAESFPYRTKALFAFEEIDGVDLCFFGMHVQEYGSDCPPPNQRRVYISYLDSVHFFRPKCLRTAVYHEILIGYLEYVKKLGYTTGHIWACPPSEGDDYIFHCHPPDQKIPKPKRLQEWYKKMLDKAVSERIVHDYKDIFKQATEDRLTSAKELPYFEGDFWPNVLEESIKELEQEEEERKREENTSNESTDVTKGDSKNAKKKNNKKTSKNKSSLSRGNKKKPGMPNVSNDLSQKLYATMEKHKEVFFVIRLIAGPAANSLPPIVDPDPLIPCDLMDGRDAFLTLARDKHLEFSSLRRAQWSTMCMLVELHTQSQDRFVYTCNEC
The assay is described as above. In kind it is binding. To be noted: probe 1 μM; mixture of p300, pCAF, Mof.

[12] abbreviates: probe 1–10 μM, 365 nm, click with fluorescent azide.

In the case of `CC(=O)SCCNC(=O)CCNC(=O)[C@H](O)C(C)(C)COP(=O)(O)OP(=O)(O)OC[C@H]1O[C@@H](n2cnc3c(N)ncnc32)[C@H](O)[C@@H]1OP(=O)(O)O` [acetyl-CoA], the “Competition with 2 for active site occupancy of Gcn5” value (shortened to “Competition … of Gcn5”) in assay [1] is “efficiently competed labeling”.

On to `CCCC(=O)SCCNC(=O)CCNC(=O)[C@H](O)C(C)(C)COP(=O)(O)OP(=O)(O)OC[C@H]1O[C@@H](n2cnc3c(N)ncnc32)[C@H](O)[C@@H]1OP(=O)(O)O` [butyryl-CoA], for which, in [2], the “Use as substrate by Gcn5” value is reported as “utilized”. Also, in [1], the “Competition … of Gcn5” value was “partial antagonist”.

Regarding `CC(=O)N[C@@H](CCCCNC(=O)CSCCNC(=O)CCNC(=O)[C@H](O)C(C)(C)COP(=O)(O)OP(=O)(O)OC[C@H]1O[C@@H](n2cnc3c(N)ncnc32)[C@H](O)[C@@H]1OP(=O)(O)O)C(N)=O` [compound 4, Lys-CoA], the “Competition of Mof-3 interaction” value in [3] is given as “competed”. Besides, the “Competition of interaction of pCAF with 2” value in assay [4] is listed as “no similar effect”.

Regarding `CC=CC(=O)SCCNC(=O)CCNC(=O)[C@H](O)C(C)(C)COP(=O)(O)OP(=O)(O)OC[C@H]1O[C@@H](n2cnc3c(N)ncnc32)[C@H](O)[C@@H]1OP(=O)(O)O` [crotonyl-CoA], in assay [1], the “Competition … of Gcn5” value is on record as “did not impede labeling”.

The term IC50 denotes the concentration that inhibits the measured activity by half. As for `C=C(C)[C@@H](CC=C(C)C)C[C@@]12C[C@@H](CC=C(C)C)C(C)(C)[C@@](CC=C(C)C)(C(=O)C(C(=O)c3ccc(O)c(O)c3)=C1O)C2=O` [garcinol], the IC50 in [5] is […].

Take `CC(C)(COP(=O)(O)OP(=O)(O)OC[C@H]1O[C@@H](n2cnc3c(N)ncnc32)[C@H](O)[C@@H]1OP(=O)(O)O)[C@@H](O)C(=O)NCCC(=O)NCCSC(=O)CC(=O)O` [malonyl-CoA]: the “Use as substrate by pCAF” value in [6] is recorded as “not utilized as a substrate”.

For `CCC(=O)SCCNC(=O)CCNC(=O)[C@H](O)C(C)(C)COP(=O)(O)OP(=O)(O)OC[C@H]1O[C@@H](n2cnc3c(N)ncnc32)[C@H](O)[C@@H]1OP(=O)(O)O` [propionyl-CoA], the “Use as substrate by Gcn5” value in assay [2] was “utilized”. For the same molecule, the “Competition … of Gcn5” value in assay [1] is recorded as “antagonized labeling”.

As to “H3K14-CoA [compound 5, reference compound]”, the “Competition of pCAF labeling by 2 in HEK-293 overexpression extracts” value in [7] (competitor) is on record as “sensitive to competition”.

On to H3K14-CoA-BPyne [compound 2], for which, in assay [8] (2 (1 μM), HeLa proteome (7 μg), gel-based), the “Lower limit of pCAF detection” value came out at 2.5 pmols. The “Detection of pCAF spiked into HeLa cell proteomes” value in assay [8] (pCAF 7 pmols) was “capable of detecting”. Further, in [9] (0.1 μM probe, clickable 2 compared with fluorescent probe 7), the “Relative labeling of pCAF at low probe concentration” value is listed as “visibly greater labeling”. For the same molecule, in assay [9], the “Fluorescent detection of pCAF at high probe concentration” value is given as “facilitate fluorescent detection” and the “Labeling of pCAF in KAT cocktail” value is listed as “clear preference for specific labeling”. Also, in [9] (60 min irradiation at 365 nm on ice, gel densitometry), the “Fraction of pCAF covalently labeled (cross-linking yield)” value is recorded as 33–40%. For the same molecule, the “Fluorescent labeling of purified recombinant pCAF” value in assay [9] (setting [12]) was “reacted effectively”. In [7] (fluorescence gel), the “Labeling of pCAF in HEK-293 overexpression extracts” value is recorded as “Weak but detectable labeling”. In addition, the “Labeling of Mof in KAT cocktail” value in assay [10] is “weaker, but detectable, labeling”.

Take H4K16-CoA-BPyne [compound 3]: the “Labeling of pCAF in KAT cocktail” value in assay [9] is given as “fainter labeling”. Besides, the “Labeling of p300 in KAT cocktail” value in assay [11] is on record as “fainter labeling”. Further, the “Labeling of Mof in KAT cocktail” value in assay [10] is given as “most strongly labeled”. The “Fluorescent labeling of purified recombinant Mof” value in [10] (setting [12]) is recorded as “reacted effectively”.

Turning to TAMRA-H3K14-CoA [compound 7], the “Fluorescent detection of pCAF at high probe concentration” value in assay [9] is given as “facilitate fluorescent detection”.
